# Measurements published in ChEMBL document CHEMBL1123545 (J Med Chem, 1986).
# How the values were obtained:
# Enterococcus faecium = assay: Compound was evaluated for growth inhibition against Streptococcus faecium ATCC 8043; type: functional, organism-based
# Mus musculus [1] = assay: (§1) Antitumor activity against L1210 leukemia in mice after subcutaneous administration (Q2Dx5) at a dose 12 mg/kg out of 10 mice tested; type: functional
# Mus musculus [2] = assay: (§2) Antitumor activity against L1210 leukemia in mice after subcutaneous administration (Q2Dx5) at a dose 18 mg/kg out of 10 mice tested; type: functional
# Mus musculus [3] = assay: (§3) Antitumor activity against L1210 leukemia in mice after subcutaneous administration (Q2Dx5) at a dose 24 mg/kg out of 10 mice tested; type: functional
# Mus musculus [4] = assay: (§4) Antitumor activity against L1210 leukemia in mice after subcutaneous administration (Q2Dx5) at a dose 32 mg/kg out of 10 mice tested; type: functional
# Mus musculus [5] = assay: (§5) Antitumor activity against L1210 leukemia in mice after subcutaneous administration (Q2Dx5) at a dose 9 mg/kg out of 10 mice tested; type: functional
# Mus musculus [6] = assay: Compound was evaluated for antitumor activity against L1210 leukemia in mice after subcutaneous administration (Q2Dx5) at a dose 18 mg/kg; type: functional; conditions: for ILS at 18 mg/kg: L1210, sc
# Mus musculus [7] = assay: Compound was evaluated for antitumor activity against L1210 leukemia in mice after subcutaneous administration (Q2Dx5) at a dose 12 mg/kg; type: functional; conditions: for ILS at 12 mg/kg: L1210, sc
# Mus musculus [8] = assay: Compound was evaluated for antitumor activity against L1210 leukemia in mice after subcutaneous administration (Q2Dx5) at a dose 9 mg/kg; type: functional; conditions: for ILS at 9 mg/kg: Mus musculus, L1210, sc
# Mus musculus [9] = assay: Compound was evaluated for antitumor activity against L1210 leukemia in mice after subcutaneous administration (Q2Dx5) at 24 mg/kg; type: functional
# Mus musculus [10] = assay: Compound was evaluated for antitumor activity against L1210 leukemia in mice after subcutaneous administration (Q2Dx5) at 32 mg/kg; type: functional
# Mus musculus [11] = assay: Compound was evaluated for antitumor activity against L1210 leukemia in mice after subcutaneous administration (Q2Dx5) at a dose 24 mg/kg; type: functional; conditions: for ILS at 24 mg/kg: L1210, sc
# Mus musculus [12] = assay: Compound was evaluated for antitumor activity against L1210 leukemia in mice after subcutaneous administration (Q2Dx5) at a dose 32 mg/kg; type: functional; conditions: L1210, sc
# Mus musculus [13] = assay: as §1; type: ADME, organism-based; design: dose 12 mg/kg, route subcutaneous; conditions: in vivo, sc
# Mus musculus [14] = assay: as §2; type: ADME, organism-based; design: dose 18 mg/kg, route subcutaneous; conditions: in vivo, sc
# Mus musculus [15] = assay: as §3; type: ADME, organism-based; design: dose 24 mg/kg, route subcutaneous; conditions: in vivo, sc
# Mus musculus [16] = assay: as §4; type: ADME, organism-based; design: dose 32 mg/kg, route subcutaneous; conditions: in vivo, sc
# Mus musculus [17] = assay: Compound was evaluated for antitumor activity against L1210 leukemia in mice after subcutaneous administration (Q2Dx5) at 18 mg/kg; type: functional
# Mus musculus [18] = assay: as §5; type: ADME, organism-based; design: dose 9 mg/kg, route subcutaneous; conditions: in vivo, sc
# L1210 [19] = assay: Compound was evaluated for transport properties against L1210 cells for efflux; type: functional, Mus musculus
# Lacticaseibacillus casei = assay: Compound was evaluated for growth inhibition against Lactobacillus casei ATCC 7469; type: functional, organism-based
# L1210 [20] = assay: Compound was evaluated for growth inhibition and minimal inhibitory concentration was reported against L1210 cells.; type: functional, Mus musculus
# L1210 [21] = assay: (§6) Compound was evaluated for transport properties against L1210 cells for influx; type: functional, cell-based, Mus musculus
# Mus musculus [22] = assay: (§7) Antitumor activity against L1210 leukemia in mice after subcutaneous administration (Q2Dx5) at a dose 12 mg/kg out of 3 mice tested; type: functional
# Mus musculus [23] = assay: Antitumor activity against L1210 leukemia in mice after subcutaneous administration (Q2Dx5) at a dose 17 mg/kg out of 9 mice tested; type: functional
# Mus musculus [24] = assay: (§8) Antitumor activity against L1210 leukemia in mice after subcutaneous administration (Q2Dx5) at a dose 32 mg/kg out of 6 mice tested; type: functional
# Mus musculus [25] = assay: (§9) Antitumor activity against L1210 leukemia in mice after subcutaneous administration (Q2Dx5) at a dose 24 mg/kg out of 9 mice tested; type: functional
# Mus musculus [26] = assay: as §7; type: ADME, organism-based; design: dose 12 mg/kg, route subcutaneous; conditions: in vivo, sc
# Mus musculus [27] = assay: Antitumor activity against L1210 leukemia in mice after subcutaneous administration (Q2Dx5) at a dose 18 mg/kg out of 9 mice tested; type: ADME, organism-based; design: dose 18 mg/kg, route subcutaneous; conditions: in vivo, sc
# Mus musculus [28] = assay: as §9; type: ADME, organism-based; design: dose 24 mg/kg, route subcutaneous; conditions: in vivo, sc
# Mus musculus [29] = assay: as §8; type: ADME, organism-based; design: dose 32 mg/kg, route subcutaneous; conditions: in vivo, sc
# Dihydrofolate reductase = molecular target: T1, Dihydrofolate reductase (Mus musculus, UniProt P00375); assay: Compound was evaluated for binding affinity against Dihydrofolate reductase of L1210 cells; type: cell-based
# T1 sequence (P00375 whole entry): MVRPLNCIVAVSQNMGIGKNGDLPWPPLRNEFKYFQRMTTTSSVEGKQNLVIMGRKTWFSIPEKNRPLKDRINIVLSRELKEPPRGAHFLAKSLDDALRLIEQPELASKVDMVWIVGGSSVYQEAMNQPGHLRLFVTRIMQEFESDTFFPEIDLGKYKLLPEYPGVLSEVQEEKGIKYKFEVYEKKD
# L1210 [30] = assay: as §6; type: functional, Mus musculus
# Mus musculus [31] = assay: (§10) Antitumor activity against L1210 leukemia in mice after subcutaneous administration (Q2Dx5) at a dose 12 mg/kg out of 9 mice tested; type: functional
# Mus musculus [32] = assay: Antitumor activity against L1210 leukemia in mice after subcutaneous administration (Q2Dx5) at a dose 18/mg/kg out of 9 mice tested; type: functional
# Mus musculus [33] = assay: (§11) Antitumor activity against L1210 leukemia in mice after subcutaneous administration (Q2Dx5) at a dose 24 mg/kg out of 3 mice tested; type: functional
# Mus musculus [34] = assay: (§12) Antitumor activity against L1210 leukemia in mice after subcutaneous administration (Q2Dx5) at a dose 9 mg/kg out of 6 mice tested; type: functional
# Mus musculus [35] = assay: as §10; type: ADME, organism-based; design: dose 12 mg/kg, route subcutaneous; conditions: in vivo, sc
# Mus musculus [36] = assay: as §11; type: ADME, organism-based; design: dose 24 mg/kg, route subcutaneous; conditions: in vivo, sc
# Mus musculus [37] = assay: as §12; type: ADME, organism-based; design: dose 9 mg/kg, route subcutaneous; conditions: in vivo, sc
# [38] = Enterococcus faecium, ATCC 8043, read-out: IC50
smiles,measurement,setting,value
CC[C@@H](CC1=Nc2c(N)nc(N)nc2NC1)c1ccc(C(=O)N[C@@H](CCC(=O)O)C(=O)O)cc1 (stereo in doubt; form 2),IC50,Enterococcus faecium; [38],1.1 ng/mL
CCC(Cc1cnc2nc(N)nc(N)c2n1)c1ccc(C(=O)NC(CCC(=O)O)C(=O)O)cc1 (racemic),30 days survivors,Mus musculus [1],0
same,30 days survivors,Mus musculus [2],0
same,30 days survivors,Mus musculus [3],2
same,30 days survivors,Mus musculus [4],0
same,30 days survivors,Mus musculus [5],0
same,ILS at 18 mg/kg,Mus musculus [6]; Mus musculus,193%
same,MST,Mus musculus [7],16.7 days
same,ILS at 12 mg/kg,Mus musculus [7],153%
same,MST,Mus musculus [8],15.5 days
same,ILS at 9 mg/kg,Mus musculus [8],135%
same,MST,Mus musculus [9],20.3 days
same,MST,Mus musculus [10],16 days
same,ILS at 24 mg/kg,Mus musculus [11],207%
same,ILS at 32 mg/kg,Mus musculus [12],67%
same,Toxic deaths,Mus musculus [13],0
same,Toxic deaths,Mus musculus [14],0
same,Toxic deaths,Mus musculus [15],2
same,Toxic deaths,Mus musculus [16],10
same,MST,Mus musculus [17],19.3 days
same,Toxic deaths,Mus musculus [18],0
CC[C@H](CC1CNc2nc(N)nc(N)c2N1)c1ccc(C(=O)N[C@@H](CCC(=O)O)C(=O)O)cc1 (mixture of isomers),IC50,Enterococcus faecium; [38],2.5 ng/mL
CCC(CC1=Nc2c(N)nc(N)nc2NC1)c1ccc(C(=O)NC(CCC(=O)O)C(=O)O)cc1 (racemic),IC50,Enterococcus faecium; [38],1.1 ng/mL
CN(Cc1cnc2nc(N)nc(N)c2n1)c1ccc(C(=O)N[C@@H](CCC(=O)O)C(=O)O)cc1 [METHOTREXATE],k,L1210 [19],0.213 min⁻¹
same,IC50,Lacticaseibacillus casei,0.013 ng/mL
same,MIC50,L1210 [20]; Mus musculus,2.48 nM
same,Ki,L1210 [21],5610 nM
same,30 days survivors,Mus musculus [1],0
same,30 days survivors,Mus musculus [2],0
same,30 days survivors,Mus musculus [3],0
same,30 days survivors,Mus musculus [5],0
same,ILS,Mus musculus [6],119%
same,MST,Mus musculus [6],14.5 days
same,MST,Mus musculus [7],16.3 days
same,ILS,Mus musculus [8],137%
same,MST,Mus musculus [8],15.7 days
same,MST,Mus musculus [11],9.6 days
same,ILS at 24 mg/kg,Mus musculus [11],46%
same,Toxic deaths,Mus musculus [13],1
same,Toxic deaths,Mus musculus [14],6
same,Toxic deaths,Mus musculus [15],10
same,Toxic deaths,Mus musculus [18],0
same,IC50,Enterococcus faecium,0.4 ng/mL
CC[C@@H](Cc1cnc2nc(N)nc(N)c2n1)c1ccc(C(=O)N[C@@H](CCC(=O)O)C(=O)O)cc1,k,L1210 [19],0.249 min⁻¹
same,MIC50,L1210 [20]; Mus musculus,1.52 nM
same,Ki,L1210 [21],1620 nM
same,30 days survivors,Mus musculus [22],0
same,30 days survivors,Mus musculus [23],0
same,30 days survivors,Mus musculus [24],0
same,MST,Mus musculus [6],17.3 days
same,ILS at 18 mg/kg,Mus musculus [6],187%
same,ILS at 12 mg/kg,Mus musculus [7],138%
same,MST,Mus musculus [8],15.7 days
same,MST,Mus musculus [10],18.8 days
same,30 days survivors,Mus musculus [25],0
same,ILS at 24 mg/kg,"Mus musculus [25]; L1210, sc",163%
same,ILS at 32 mg/kg,Mus musculus [12],181%
same,Toxic deaths,Mus musculus [26],0
same,Toxic deaths,Mus musculus [27],0
same,Toxic deaths,Mus musculus [28],0
same,Toxic deaths,Mus musculus [29],1
CC[C@@H](CC1=Nc2c(N)nc(N)nc2NC1)c1ccc(C(=O)N[C@@H](CCC(=O)O)C(=O)O)cc1 (stereo in doubt; form 1),IC50,Enterococcus faecium,1.1 ng/mL
C[C@H](Cc1cnc2nc(N)nc(N)c2n1)c1ccc(C(=O)N[C@@H](CCC(=O)O)C(=O)O)cc1 (stereo in doubt; d-L-15a),Ki,Dihydrofolate reductase,0.00424 nM
same,k,L1210 [30],0.258 min⁻¹
same,MIC50,L1210 [20]; Mus musculus,0.68 nM
same,Ki,L1210 [21],1910 nM
CC[C@H](CC1CNc2nc(N)nc(N)c2N1)c1ccc(C(=O)N[C@@H](CCC(=O)O)C(=O)O)cc1 (stereo in doubt),IC50,Enterococcus faecium,3.1 ng/mL
CC[C@H](Cc1cnc2nc(N)nc(N)c2n1)c1ccc(C(=O)N[C@@H](CCC(=O)O)C(=O)O)cc1,k,L1210 [19],0.253 min⁻¹
same,MIC50,L1210 [20]; Mus musculus,0.43 nM
same,Ki,L1210 [21],1580 nM
same,30 days survivors,Mus musculus [31],0
same,30 days survivors,Mus musculus [32],1
same,30 days survivors,Mus musculus [33],0
same,MST,Mus musculus [6],17.5 days
same,ILS at 18 mg/kg,Mus musculus [6],165%
same,30 days survivors,Mus musculus [34],0
same,MST,Mus musculus [7],19.8 days
same,ILS at 12 mg/kg,Mus musculus [7],199%
same,MST,Mus musculus [8],18.3 days
same,ILS at 9 mg/kg,Mus musculus [8],177%
same,MST,Mus musculus [11],10 days
same,ILS at 24 mg/kg,Mus musculus [11],55%
same,Toxic deaths,Mus musculus [35],3
same,Toxic deaths,Mus musculus [27],5
same,Toxic deaths,Mus musculus [36],3
same,Toxic deaths,Mus musculus [37],0
CCC(CC1CNc2nc(N)nc(N)c2N1)c1ccc(C(=O)NC(CCC(=O)O)C(=O)O)cc1 (racemic),IC50,Enterococcus faecium; [38],2.6 ng/mL
C[C@H](Cc1cnc2nc(N)nc(N)c2n1)c1ccc(C(=O)N[C@@H](CCC(=O)O)C(=O)O)cc1 (stereo in doubt; l-L-15a),Ki,Dihydrofolate reductase,0.00317 nM
same,k,L1210 [30],0.267 min⁻¹
same,MIC50,L1210 [20],1.18 nM
same,Ki,L1210 [21],1900 nM
